The text below walks through data of publication PMC6864445, “New Molecular Insights into the Inhibition of Dipeptidyl Peptidase-4 by Natural Cyclic Peptide Oxytocin” (Molecules, 2019).

Assay [1] has as its system DPP4. The following applies: cited from earlier work; for IC50: read-out: IC50 (uM), peptides as DPP4 inhibitors, Supplementary Table S1.
Assay [2] has as its target T1, human dipeptidyl peptidase-4 (DPP4) (Homo sapiens, UniProt P27487).
T1 construct: purchased Sigma Aldrich
As to the kind of experiment: DPP4 inhibitor screening kit fluorescence assay (H-Gly-Pro-AMC cleavage). Type of assay: biochemical. The settings on record: n = 3. The protocol: Oxytocin peptide was purchased from the company Parfarm S.A (District Federal, Mexico), and human dipeptidyl peptidase-4 inhibitor screening kit, Black-well 96 well plate for fluorescence assays were purchased from Sigma Aldrich (St. Louis, MO, USA).
The experimental studies were carried out using the human DPP4 inhibitor screening kit to validate the computational results. Briefly, the pure protein DPP4 cleaves non-fluorescence substrate H-Gly-Pro-AMC and releases fluorescence product AMC whose fluorescence emissions, λex = 360 nm and λem = 460 nm on each well, were recorded in a kinetic mode for 30 min using microplate reader Thermo Scientific Varioskan Flash Multimode Reader by Thermo Scientific. The relative percent of inhibition was calculated using Equation (1), where df/dt denotes changes in fluorescence with time. The graphs were plotted for all experiments (n = 3) using Graph Pad software. All groups were compared with p < 0.05 as statistically significant. To obtain the p-value, an ordinary one-way ANOVA unpaired t-test was applied using Graph Pad software (San Diego, CA, USA). All the data in graphs are expressed as mean ± S.D:(1) % Relative inhibition=(df/dt)DPP4 enzyme−(df/dt)(DPP4−OXT peptide)/(df/dt)DPP4 enzyme×100

T1 sequence (P27487 whole entry): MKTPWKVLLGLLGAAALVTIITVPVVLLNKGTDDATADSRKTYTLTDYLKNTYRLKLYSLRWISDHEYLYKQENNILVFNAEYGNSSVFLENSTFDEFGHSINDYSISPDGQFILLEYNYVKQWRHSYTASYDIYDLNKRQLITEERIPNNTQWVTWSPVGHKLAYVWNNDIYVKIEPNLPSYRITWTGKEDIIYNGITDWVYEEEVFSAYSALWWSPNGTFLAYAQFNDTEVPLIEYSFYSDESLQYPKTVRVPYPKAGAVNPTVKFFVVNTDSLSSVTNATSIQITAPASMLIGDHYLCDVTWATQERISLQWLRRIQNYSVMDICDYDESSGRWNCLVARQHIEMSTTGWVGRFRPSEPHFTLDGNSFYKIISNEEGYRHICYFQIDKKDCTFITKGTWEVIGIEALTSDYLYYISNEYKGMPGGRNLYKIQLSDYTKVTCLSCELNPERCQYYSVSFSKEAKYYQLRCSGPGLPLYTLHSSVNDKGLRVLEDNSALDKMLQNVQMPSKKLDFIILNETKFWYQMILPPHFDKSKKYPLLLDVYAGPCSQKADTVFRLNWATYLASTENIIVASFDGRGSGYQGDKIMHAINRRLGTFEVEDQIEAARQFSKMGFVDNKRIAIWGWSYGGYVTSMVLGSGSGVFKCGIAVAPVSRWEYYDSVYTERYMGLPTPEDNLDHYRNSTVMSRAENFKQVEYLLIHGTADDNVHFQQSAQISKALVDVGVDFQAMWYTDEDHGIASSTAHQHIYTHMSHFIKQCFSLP

For IPIQY, in assay [1], the IC50 was 26.7 µM.
Take PGPIHDS: in assay [1], the IC50 was 1000 µM.
Regarding LPLPL, in assay [1], the IC50 was 358 µM.
In the case of IPAVF, in assay [1], the IC50 is 44.7 µM.
On to Diprotin A, for which the “IC50 of DPP4” value in assay [1] (peptide isolated from culture of Bacillus cereus) was 2900 mg/L. Besides, the IC50 in assay [1] is 2.9 µM.
Consider GPGA, for which the IC50 in assay [1] is 41.9 µM.
On to LPQNIPP, for which the IC50 in assay [1] is 160 µM.
On to IPIY, for which the IC50 in assay [1] is 35.2 µM.
With LPYPY, the IC50 in assay [1] was 90.8 µM.
One may read the inhibition as how much of the control response was suppressed. On to `CC[C@H](C)[C@@H]1NC(=O)[C@H](Cc2ccc(O)cc2)NC(=O)[C@@H](N)CSSC[C@@H](C(=O)N2CCC[C@H]2C(=O)N[C@@H](CC(C)C)C(=O)NCC(N)=O)NC(=O)[C@H](CC(N)=O)NC(=O)[C@H](CCC(N)=O)NC1=O` [oxytocin], for which the inhibition at 0.002 µM in assay [2] (2 nM oxytocin, mean, read-out: relative percent inhibition of DPP4) turned out to be 6.3%. In addition, the inhibition at 0.019 µM in assay [2] (19 nM oxytocin, mean, read-out: relative percent inhibition of DPP4) came to 44.5%. Moreover, the inhibition at 0.28037 µM in assay [2] (280.37 nM oxytocin, mean, read-out: relative percent inhibition of DPP4) was found to be 61.6%. The inhibition at 0.85047 µM in assay [2] (850.47 nM oxytocin, mean, read-out: relative percent inhibition of DPP4) was 75.4%. The inhibition at 1.6 µM in assay [2] (1600 nM oxytocin, mean, read-out: relative percent inhibition of DPP4) is 81.2%. In addition, in assay [2] (fluorescence assay, substrate H-Gly-Pro-AMC, λex 360 nm / λem 460 nm, kinetic mode 30 min, dose-response curve in Figure S1, read-out: inhibitory concentration IC50 of DPP4), the IC50 turned out to be 0.111 µM.
For the molecule YPYY, the IC50 in assay [1] was 208 µM.
As for FPGPIPD, in assay [1], the IC50 is 260 µM.
As to GPAG, the IC50 in assay [1] was 41.1 µM.
